These results are taken from US20190091281A1, “DELIVERY PHARMACEUTICAL COMPOSITIONS INCLUDING PERMEATION ENHANCERS” (AQUESTIVE THERAPEUTICS, INC., priority 2017, published 2019).

The nature of series [1]: Octreotide compatibility of permeation enhancers (solubility without precipitation).
The subject of a further series is frozen buccal tissue. Description: Ex vivo permeation model of octreotide with permeation enhancers (Franz diffusion cell). An excerpt:
The Franz diffusion cell apparatus consists of two chambers separated by a membrane of, for example, animal or human skin. The test product is applied to the membrane via the top chamber. The bottom chamber contains fluid from which samples are taken at regular intervals for analysis to determine the amount of active that has permeated the membrane at set time points.
Applicants performed an ex vivo screening of permeation enhancers of octreotide delivery. Ex vivo porcine tissue was used, with a tissue thickness 300 um, 3 mg of octreotide and a time of up to 6 hours.

The test system of another series is buccal tissue. Put plainly: HIFU as physical permeation enhancer, ex vivo permeation through full thickness tissue. The class given is in vitro ADME. Conditions: HIFU 30 seconds (180 watts, duty cycle 5%, PRF 10 Hz), two hours. An excerpt: In one example, the inventors used High Intensity Focused Ultrasound (HIFU) as physical permeation enhancer. HIFU can have mechanical, cavitational or thermal effects on the tissue depending on the Ultrasound parameters such as intensity, duty cycle, pulse repetition frequency and the exposure time. In this experiment, the buccal tissue was subjected to HIFU for 30 seconds (power of 180 watts, duty cycle 5%, PRF of 10 Hz) octreotide permeation through the tissue was monitored for two hours in the ex vivo permeation model described earlier (except using full thickness tissue which includes connective tissue of the sub-mucosa).

Series [2] is described as follows: Octreotide degradation on buccal tissue with microneedle application. The class given is in vitro ADME. The settings on record: 4 hours at 37 degrees C. The procedure:
As shown in the Table below, the buccal tissue was subjected to microneedle application (10 times) and incubated with octreotide solution (2 ml, 1 mg/ml) for 4 hours at 37 degrees C.

Series [3] is described as follows: POC study in mini pigs, octreotide solution on buccal/sublingual mucosa after microneedles. Type of series: in vivo. The settings on record: pig, blood; for AUC / Cmax / bioavailability: 12 mg. An excerpt: Solutions were placed after scraping off mucin using a spatula and then treating the area with microneedles (750 um for buccal and 500 um for sublingual). Methocel (40% in water was used as a glue to attach the holder keeping the solution on to the tissue. The test material was colored so that any loss of drug during the experimental set up could be easily monitored.

Assay in series [4]: as above
The class given is in vivo. Conditions: pig, blood, iv, 100 ug, 100 μg I.V.

[5] abbreviates: 10% w/w, Octreotide soluble after vigorous stirring.
Where [6] appears, read: octreotide flux, enhancer 10 Wt %, frozen buccal tissue 300 um.
Setting [7] is: octreotide permeation, 10% w/w, Octreotide soluble after vigorous stirring.
The mark [8] stands for this setting: 12 mg solution with 5 wt % DDTMAB applied to disrupted buccal mucosa.
Setting [9] is: 12 mg with 5 wt % DDTMAB applied to disrupted sublingual mucosa.

Where “and” joins values, the source holds several entries; their conditions need not be identical. Equal entries are not always repeated. Where two headings read alike, the source gives them in different places.

The amount remaining is the share of the starting amount still present when the sample was taken. For orientation: Tmax means the time from dosing to the highest level. A word on the AUC: it is concentration integrated over time. Low readings indicate less exposure, high ones more exposure. In general, Cmax refers to the maximum level reached in the sampled fluid or tissue. One may read the bioavailability as dose-corrected exposure relative to a reference, in per cent. Read a low bioavailability as little systemic uptake.

As to `C[C@H](CCC(=O)NCC(=O)[O-])[C@H]1CC[C@H]2[C@@H]3CC[C@@H]4C[C@H](O)CC[C@]4(C)[C@H]3C[C@H](O)[C@]12C.[Na+]` [GDC, Sodium glycodeoxycholate], the “Octreotide Compatibility” value in series [1] (setting [5]) is on record as “Yes”. Further, the Average flux was determined as 0.14 ug/cm2*min with frozen buccal tissue (octreotide flux, enhancer 0.1 Wt %, frozen buccal tissue 300 um) and 0.85 ug/cm2*min in the series on frozen buccal tissue (setting [6]). The “Permeation Ranking 0-1-2-3 None-Low-Med-High” value with frozen buccal tissue (setting [7]) is on record as 2.
In the case of `CN1CCCC1=O` [1-Methyl 2-Pyrrolidone], the Average flux in the series on frozen buccal tissue (pig, 5 Wt %) is 0.08 ug/cm2*min.
Turning to `CCCCCCCC[N+](C)(C)C.[Br-]` [Octyltrimethylammonium bromide], the permeation activity result with frozen buccal tissue was “not active”.
Turning to `CCCCCCCCCCCCCCO[C@@H]1O[C@H](CO)[C@@H](O[C@H]2O[C@H](CO)[C@@H](O)[C@H](O)[C@H]2O)[C@H](O)[C@H]1O` [TDM], the “Permeation Ranking 0-1-2-3 None-Low-Med-High” value in the series with frozen buccal tissue is reported as 1.
`CCCCCCCCCCCCCCCCOP(=O)([O-])OCC[N+](C)(C)C` [Miltefosine (Hexadecyl Phosphatidyl Choline), reference compound]: in the series with frozen buccal tissue, the Average flux was determined as 0.14 ug/cm2*min.
On to `CCCCCC[N+](C)(C)C.[Br-]` [Hexyltrimethylammonium bromide], for which the permeation activity result in the series with frozen buccal tissue is on record as “not active”.
As for `CCCCCCCCN1CCCC1=O` [Octyl pyrroldone], the Average flux in the series with frozen buccal tissue came to 0.10 ug/cm2*min.
For `C[C@@H](O)[C@@H]1NC(=O)[C@H](CCCCN)NC(=O)[C@@H](Cc2c[nH]c3ccccc23)NC(=O)[C@H](Cc2ccccc2)NC(=O)[C@@H](NC(=O)[C@H](N)Cc2ccccc2)CSSC[C@@H](C(=O)N[C@H](CO)[C@@H](C)O)NC1=O` [Octreotide], in the series with buccal tissue, the “octreotide permeated through the tissue” value is approximately 60 µg. Moreover, the fraction remaining at 4 h, 1 mg/ml was found to be 98% in series [2] (+ Tissue with microneedle (10 times)); 86% in series [2] (buccal tissue incubated with octreotide solution, + Tissue); 100% in series [2] (control without tissue, control, octreotide solution 2 ml, 1 mg/ml). Moreover, the flux entry was “approximately 0.500 ug/cm2*min” with frozen buccal tissue (octreotide concentration of 5 mg/ml (FIG. 4)) and 2.0-2.5 ug/cm2*min with frozen buccal tissue (octreotide concentration of 15-20 mg/ml (FIG. 4)).
As to `O=C(O)CN(CCOCCOCCN(CC(=O)O)CC(=O)O)CC(=O)O` [EGTA], in the series on frozen buccal tissue, the “Permeation Ranking 0-1-2-3 None-Low-Med-High” value is recorded as 0.
Turning to `CCCCCCCC/C=C\CCCCCCCC(=O)O` [Oleic acid], in the series on frozen buccal tissue (pig), the “Permeation Ranking 0-1-2-3 None-Low-Med-High” value worked out at 0. Besides, the Average flux in the series with frozen buccal tissue (pig, 5 Wt %) came out at 0.01 ug/cm2*min.
Consider `Cl.NCCCNCCCCNCCCN` [Spermine HCl], for which the Average flux in the series on frozen buccal tissue (pig, 10 Wt %) is 0.58 ug/cm2*min.
Consider `C[C@@H](O)[C@@H]1NC(=O)[C@H](CCCCN)NC(=O)[C@@H](Cc2c[nH]c3ccccc23)NC(=O)[C@H](Cc2ccccc2)NC(=O)[C@@H](NC(=O)[C@H](N)Cc2ccccc2)CSSC[C@@H](C(=O)N[C@H](CO)[C@@H](C)O)NC1=O` [octreotide acetate], for which, in series [3] (setting [8]), the Tmax turned out to be 3 h, the exposure (AUC) is 19.8 ng·h/mL, the Cmax turned out to be 4.2 ng/mL and the bioavailability worked out at 1.11%. In series [3] (setting [9]), this compound gave an AUC of 106 ng·h/mL, a peak concentration (Cmax) of 25.6 ng/mL and a bioavailability of 5.97%. In series [4], the exposure (AUC) amounted to 14.8 ng·h/mL, the concentration peaked (Cmax) at 31 ng/mL and the time to peak (Tmax) was 4 min.
`CO[C@H]1CO[C@H]2[C@@H]1OC[C@H]2OC` [Dimethyl isosorbide]: in the series on frozen buccal tissue (octreotide flux, enhancer 5 Wt %, frozen buccal tissue 300 um), the Average flux turned out to be 0.07 ug/cm2*min.
As to Dimethyl-cyclodextrin, in the series on frozen buccal tissue, the Average flux is on record as 0.53 ug/cm2*min and the “Permeation Ranking 0-1-2-3 None-Low-Med-High” value is listed as 1.
On to Hydroxypropylcyclodextrin, for which the Average flux in the series on frozen buccal tissue stood at 0.15 ug/cm2*min.
`CCCCCCCCCCCC[N+](C)(C)C.[Br-]` [Dodecyltrimethylammonium bromide]: in series [1], the “Octreotide Compatibility” value is “Yes” and the “compatibility with octreotide in terms of solubility without causing precipitation” value is on record as “improved compatibility”. The permeation activity result with frozen buccal tissue (aliphatic trimethyl-ammonium bromide surfactants at 1 wt % (FIG. 5)) is on record as “most active”.
As to `CCCCCCCCCCCCCCCC[N+](C)(C)C.[Br-]` [Hexadecyltrimethylammonium bromide], in series [1], the “compatibility with octreotide in terms of solubility without causing precipitation” value is listed as “improved compatibility”. Further, the permeation activity result in the series on frozen buccal tissue was “most active”. The “Permeation Ranking 0-1-2-3 None-Low-Med-High” value with frozen buccal tissue (pig) came out at 3. Further, in the series on frozen buccal tissue (pig, 1 Wt %), the Average flux is on record as 1.23 ug/cm2*min.
“Benzalkonium chloride [Benzalkonium chloride (BAC)]”: the “Permeation Ranking 0-1-2-3 None-Low-Med-High” value in the series on frozen buccal tissue was 3.
In the case of `CCCCCCCC/C=C\CCCCCCCCOC(=O)C[N+](C)(C)C` [Glycine Betaine Ester C18 (Oleyl)], in the series on frozen buccal tissue, the Average flux worked out at 0.51 ug/cm2*min and the flux is recorded as 3-3.5 μg/cm^2*min.
Turning to `O=C(O)CN(CCN(CC(=O)O)CC(=O)O)CC(=O)O` [EDTA], the “Permeation Ranking 0-1-2-3 None-Low-Med-High” value in the series with frozen buccal tissue (pig) is 1. Besides, the Average flux in the series with frozen buccal tissue (pig, 10 Wt %) came out at 0.10 ug/cm2*min.
With `CCCCCCCCCCCCOC(=O)C[N+](C)(C)C` [Glycine Betaine Ester C12], the “biodegradability, quantified by analysis of glycine betaine” value (biological media (plasma, esterase solution, simulated intestinal fluid, tissue homogenate), 37 degrees C.) is listed as “highly biodegradable”. Further, the “degradability in acidic environment” value (simulated gastric fluid (pepsin/low pH)) was “not degradable”. Moreover, in the series with frozen buccal tissue, the Average flux amounted to 3.14 ug/cm2*min and the flux is 3-3.5 μg/cm^2*min.
Consider Sodium Deoxycholate [DOC], for which the “Octreotide Compatibility” value in series [1] (setting [5]) was “Yes”. Besides, the Average flux with frozen buccal tissue (setting [6]) is 0.49 ug/cm2*min and 0.41 ug/cm2*min. For the same compound, the “Permeation Ranking 0-1-2-3 None-Low-Med-High” value in the series on frozen buccal tissue (setting [7]) is on record as 1.
Regarding `CCCCCCCCCCCCCCCCOC(=O)C[N+](C)(C)C` [Glycine Betaine Ester C16], in the series on frozen buccal tissue, the Average flux is 0.69 ug/cm2*min and the flux is 3-3.5 μg/cm^2*min.
As to `O=CC=Cc1ccccc1` [Cinnamaldehyde], the Average flux turned out to be 0.00 ug/cm2*min with frozen buccal tissue (pig, 1 Wt %) and 0.00 ug/cm2*min in the series with frozen buccal tissue (pig, 3 Wt %).
Regarding `CCCCCCCCCCCCCCCC[N+](C)(C)C.[Br-]` [drawing 5], the “Avg Flux” value in the series on frozen buccal tissue (pig, 1 wt %) is reported as 1.31 (1 wt %) μg/cm^2*min.
